Like-named read-outs stand apart in the source and are kept apart here.
Legend:
[1] = system: intraocular pressure of guinea pigs; test: Adverse reactions of continuous ocular administration: intraocular pressure; type: in vivo
Summary of the method: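 Guinea pigs (300-350 g, both sexes) dosed bilaterally with 5 mg/5 mL ophthalmic suspensions, saline as blank; intraocular pressure measured before dosing and on days 7, 14, 21 and 28.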

[2] = Pharmacokinetic (PK) experiment in rats; type: in vivo, male SD rats; settings: same experimental conditions
Description: Pharmacological Example 11. Pharmacokinetic (PK) Experiment in Rats
The solution was prepared before administration.
Animals: 6 male SD rats, SPF grade (Beijing Vital River Laboratory Animal Technology Co., Ltd.).
Animal grouping: The animals were weighed prior to administration, and the dosage was calculated based on body weight. The animals in the oral administration group were fasted overnight (10-14 hours) before administration, and food was reintroduced 4 hours post-administration. Table 23. Animal grouping and drug administration dosages for pharmacokinetic (PK) experiment in rats
Blood collection time points: Blood was collected from the jugular vein at 2 min, 5 min, 15 min, 30 min, 1 h, 2 h, 4 h, 8 h, and 24 h after administration. Approximately 0.25 mL of blood was collected for each sample, anticoagulated with heparin sodium, and then placed on ice immediately.
Plasma sample processing: Blood samples were placed on ice after collection and centrifuged to separate plasma within 1 hour (centrifugation conditions: 6000 rpm, 3 minutes, 2-8 °C ). Plasma samples were stored in a -80°C freezer before analysis.
Data processing: Pharmacokinetic parameters were calculated using Phoenix WinNonlin 8.2.0 based on the plasma drug concentration data at different time points.

uveitis model rats = test: Anti-uveitis pharmacodynamic experiment (LPS model): ocular pathological score; type: in vivo, male SD rats; settings: for ocular abnormalities / ocular pathological score: compared with the model group
Description: Pharmacodynamic Experiment on Anti-Uveitis
Positive control drug: Fluorometholone Eye Drops (specification: 5 mL/5 mg; Santen Pharmaceutical (CHINA) Co., Ltd.; Lot No. : J20180068) was used as the positive control drug and stored at room temperature protected from light until use.
Fifty male SD rats underwent a one-week adaptive feeding period. […] Groups 2 to 5 were used to establish rat uveitis models by single subcutaneous injection of 1 mg/kg LPS (Salmonella; Sigma; Lot No. 0000164114) into the plantar tissue of the hindpaw. Salmonella endotoxin was dissolved in normal saline to prepare an injection solution at a concentration of 2 mg/mL, which was injected subcutaneously at 1 mg/kg into the plantar tissue of one paw of the rats. Group 1 was injected with an equal volume of normal saline.
At the end of the experiment, photos of the rats' eyes were taken using a slit-lamp microscope, and the differences in ocular lesions of rats among groups were compared and analyzed.
Statistical analysis was performed using SPSS software. Measurement data were expressed as mean ± standard deviation. One-way ANOVA was used for intergroup comparisons. For data with homogeneous variance, LSD test was used; for data with heterogeneous variance, Dunnett-t test was used. A value of P < 0.05 was considered statistically significant.

[3] = molecular target: T1, glucocorticoid receptor (GR) (Homo sapiens, UniProt P04150); test: Assay for agonist activity on glucocorticoid receptor (luciferase reporter, HEK293 cells transfected with pBIND-GR plasmid); type: cell-based
T1 sequence (P04150 521-777): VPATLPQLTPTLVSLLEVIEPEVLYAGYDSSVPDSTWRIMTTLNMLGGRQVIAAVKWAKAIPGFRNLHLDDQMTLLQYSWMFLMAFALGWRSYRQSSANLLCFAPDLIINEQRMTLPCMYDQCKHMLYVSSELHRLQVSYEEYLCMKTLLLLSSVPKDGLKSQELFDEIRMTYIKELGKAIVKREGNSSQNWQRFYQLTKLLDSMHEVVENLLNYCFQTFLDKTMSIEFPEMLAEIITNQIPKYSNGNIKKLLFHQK
Summary of the method: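 Readout is luciferase luminescence, with EC50 derived by nonlinear fitting. Compounds ran at 10 concentrations (4-fold steps, top 10 µM, duplicate wells) on pBIND-GR-transfected HEK293 cells in phenol red-free DMEM plus 5% charcoal-stripped serum; 0.1% DMSO served as blank.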

[4] = system: dry eye syndrome model New Zealand rabbits; test: Dry eye syndrome experiment (benzalkonium chloride model): tear film break-up time; type: in vivo, male New Zealand White rabbits; settings: for tear film break-up time: compared with the model group
Description: Positive control drug: Fluorometholone Eye Drops (specification: 5 mL/5 mg; Santen Pharmaceutical (CHINA) Co., Ltd.; Lot No.: 1FM6625) was used as the positive control drug and stored at room temperature protected from light until use.
Thirty male New Zealand White rabbits (conventional grade) were prepared. Six rabbits were randomly selected as the blank control group, and the remaining animals were administered 0.1% benzalkonium chloride to the left eye twice daily (morning and evening) , 10 µL/animal each time. On day 6 of modeling, tear secretion was measured using phenol red cotton threads to determine whether the model was successfully established. […] During the administration, all animals except the blank control group were administered 10 µL of 0.1% benzalkonium chloride to the left eye once daily to maintain dry eye symptoms..
• Test time: D3, D7, D15; • Test animals: All animals were tested before grouping; all enrolled surviving animals were tested after administration; • Test method: 1% Fluorescein sodium was dropped onto the inner side of the rabbit's lower eyelid, 10 µL/animal. The rabbit's eyes were closed and gently massaged to evenly distribute the fluorescein sodium on the eye surface. The rabbit's eyes were then sequentially placed under a slit lamp. The tear film break-up time was observed and recorded as the time from eye opening to the appearance of the first dark spot. If no dark spot appeared, the time was calculated as 60 seconds.
The normality and homogeneity of variance were tested by Levene's test. If there was no statistical significance (P > 0.05), one-way analysis of variance (ANOVA) was used for statistical analysis. If ANOVA was statistically significant (P ≤ 0.05), LSD test (parametric method) was used for comparative analysis. If the variance was heterogeneous (P ≤ 0.05), Kruskal-Wallis test was used. If the Kruskal-Wallis test was statistically significant (P ≤ 0.05), Dunnett's test (nonparametric method) was used for comparative analysis.

[5] = system: dry eye syndrome model New Zealand rabbits; test: Dry eye syndrome experiment (benzalkonium chloride model): tear secretion test with phenol red cotton threads; type: in vivo, male New Zealand White rabbits; settings: for tear secretion: compared with the model group
[6] = Stability in animal lung tissue homogenate, skin tissue homogenate and aqueous humor; type: in vitro ADME
epidermal layer in rats = test: Adverse reactions of continuous dermal administration: thickness of the epidermal layer (H&E sections); type: in vivo, SD rats; settings: compared with the blank control group
Description: Pharmacological Example 10: Experiment on Adverse Reactions of Continuous Dermal Administration in Rats
Animals: SD rats, SPF grade, with an equal number of males and females, weighing 230-250 g.
Animal grouping: After adaptive feeding, the rats were randomly divided into 4 groups. […] One day before administration, the backs of rats were shaved at an area of 5 cm × 6 cm. […] The rats in the blank control group were applied with the blank matrix of corresponding mass on their backs, twice a day for a consecutive week. Table 21. Animal grouping and drug administration dosages for the experiment on adverse reactions of continuous dermal administration in rats
To examine the effects of continuous administration of the test samples on the epidermal layer, the back skin tissues were stained with hematoxylin and eosin (H&E) (magnification ×40), and the thickness of the epidermal layer was quantitatively measured based on the H&E-stained sections.

[7] = GR agonist EC50 (nM), HEK293 cells transfected with pBIND-GR, luciferase signal
[8] = Nuclear receptor enzyme activity (nM) GR, EC50 of agonist activity, HEK293 reporter cells
[9] = D3, 1 mg/mL, 50 µL/eye, 3 times a day for 14 days
[10] = D7, 1 mg/mL, 50 µL/eye, 3 times a day for 14 days
[11] = D15, 1 mg/mL, 50 µL/eye, 3 times a day for 14 days

SMILES	intraocular pressure after continuous ocular administration [1]	pharmacokinetic properties (plasma clearance rate, systemic exposure) [2]	ocular abnormalities / ocular pathological score (uveitis model rats)	EC50 [3, 7]	EC50 [3, 8]	tear film break-up time [4]	tear secretion [5]	stability in animal lung tissue homogenate, skin tissue homogenate, and aqueous humor [6]	thickness of the epidermal layer after continuous dermal administration (epidermal layer in rats)	EC50 ([3]; HEK293 cells transfected with pBIND-GR, luciferase signal, read-out: GR agonist EC50)	Tear film break-up time (s) D3 [4, 9]	Tear film break-up time (s) D7 [4, 10]	Tear film break-up time (s) D15 [4, 11]	Wetting length of phenol red cotton threads (mm) D0 ([5]; D0, 1 mg/mL, 50 µL/eye, 3 times a day for 14 days)	Wetting length of phenol red cotton threads (mm) D3 [5, 9]	Wetting length of phenol red cotton threads (mm) D7 [5, 10]	Wetting length of phenol red cotton threads (mm) D15 [5, 11]	Ocular pathological score (uveitis model rats; 1 mg/mL, 40 µL/eye, 3 times a day for 2 days)
C[C@]12C=CC(=O)C=C1[C@@H](F)C[C@H]1[C@@H]3C[C@H]4OC(c5ccc(CSC6CCOC6=O)cc5)O[C@@]4(C(=O)SCF)[C@@]3(C)C[C@H](O)[C@@]12F (stereo partly drawn) [Compound 34, S-(Fluoromethyl) (2S,6aS,6bR,7S,8aS,8bS,11aR,12aS,12bS)-2,6b-difluoro-7-hydroxy-6a,8a-dimethyl-4-oxo-10-(4-( ((2-oxotetrahydrofuran-3-yl)thio)methyl)phenyl)-1,2,4,6a,6b,7,8,8a,11a,12,12a,12b-dodecahydro-8bH-naphtho[2',1':4,5]indeno[1,2-d][1,3]dioxole-8b-carbothioate]	no abnormal intraocular pressure observed	pharmacokinetic properties similar to those of compound 8	significantly improved ocular abnormalities	0.1 nM	0.1 nM	significantly increased the tear film break-up time	significantly increased the tear secretion	relatively stable	no significant changes in the thickness of the epidermal layer observed									
C[C@]12C=CC(=O)C=C1[C@@H](F)C[C@H]1[C@@H]3C[C@H]4OC(c5ccc(CSC6CCOC6=O)cc5)O[C@@]4(C(=O)OCC#N)[C@@]3(C)C[C@H](O)[C@@]12F (stereo partly drawn) [Compound 37, Cyanomethyl (2S,6aS,6bR,7S,8aS,8bS,11aR,12aS,12bS)-2,6b-difluoro-7-hydroxy-6a,8a-dimethyl-4-oxo-10-(4-( ((2-oxotetrahydrofuran-3-yl)thio)methyl)phenyl)-1,2,4,6a,6b,7,8,8a,11a,12,12a,12b-dodecahydro-8bH-naphtho[2',1':4,5]indeno[1,2-d][1,3]dioxole-8b-carboxylate]	no abnormal intraocular pressure observed	pharmacokinetic properties similar to those of compound 8	significantly improved ocular abnormalities	0.78 nM		significantly increased the tear film break-up time	significantly increased the tear secretion	relatively stable	no significant changes in the thickness of the epidermal layer observed									
C[C@]12C=CC(=O)C=C1[C@@H](F)C[C@H]1[C@@H]3C[C@H]4OC(c5ccc(CSC6CCOC6=O)cc5)O[C@@]4(C(=O)SCC#N)[C@@]3(C)C[C@H](O)[C@@]12F (stereo partly drawn) [Compound 35, S-(Cyanomethyl) (2S,6aS,6bR,7S,8aS,8bS,11aR,12aS,12bS)-2,6b-difluoro-7-hydroxy-6a,8a-dimethyl-4-oxo-10-(4-( ((2-oxotetrahydrofuran-3-yl)thio)methyl)phenyl)-1,2,4,6a,6b,7,8,8a,11a,12,12a,12b-dodecahydro-8bH-naphtho[2',1':4,5]indeno[1,2-d][1,3]dioxole-8b-carbothioate]	no abnormal intraocular pressure observed	pharmacokinetic properties similar to those of compound 8	significantly improved ocular abnormalities	0.21 nM	0.21 nM	significantly increased the tear film break-up time	significantly increased the tear secretion	relatively stable	no significant changes in the thickness of the epidermal layer observed									
C[C@]12C=CC(=O)C=C1CC[C@H]1[C@@H]3C[C@H]4OC(c5ccc(CSC6COC(=O)C6)cc5Cl)O[C@@]4(C(=O)CO)[C@@]3(C)C[C@H](O)[C@@]12F (stereo partly drawn) [Compound 20, (6aS,6bR,7S,8aS,8bS,11aR,12aS,12bS)-10-(2-Chloro-4-(((5-oxotetrahydrofuran-3-yl)thio)methyl)phenyl)-6b-fluoro-7-hydroxy-8b-(2-hydroxyacetyl)-6a,8a-dimethyl-1,2,6a,6b,7,8,8a,8b,11a,12,12a, 12b-dodecahydro-4H-naphtho[2',1':4,5]indeno[1,2-d][1,3]dioxol-4-one]	no abnormal intraocular pressure observed	pharmacokinetic properties similar to those of compound 8	significantly improved ocular abnormalities			significantly increased the tear film break-up time on day 15	significantly increased the tear secretion on day 15	relatively stable	no significant changes in the thickness of the epidermal layer observed	0.33 nM	37.00 ± 13.36 s	48.00 ± 9.94 s	48.28 ± 8.21 s	27.76 ± 6.04 mm	23.39 ± 3.93 mm	29.78 ± 2.74 mm	35.28 ± 3.21 mm	
C[C@]12C=CC(=O)C=C1CC[C@H]1[C@@H]3C[C@H]4OC(c5ccc(CSC6COC(=O)C6)cc5)O[C@@]4(C(=O)CO)[C@@]3(C)C[C@H](O)[C@@]12Cl (stereo partly drawn) [Compound 26, (6aS,6bR,7S,8aS,8bS,11aR,12aS,12bS)-6b-Chloro-7-hydroxy-8b-(2-hydroxyacetyl)-6a,8a-dimethyl-10-(4-(((5-oxotetrahydrofuran-3-yl)thio)methyl)phenyl)-1,2,6a,6b,7,8,8a,8b,11a,12,12a,12b-do decahydro-4H-naphtho[2',1':4,5]indeno[1,2-d][1,3]dioxol-4-one]	no abnormal intraocular pressure observed	pharmacokinetic properties similar to those of compound 8	significantly improved the ocular abnormalities and reduced the ocular pathological score	0.37 nM		significantly increased the tear film break-up time	significantly increased the tear secretion	relatively stable	no significant changes in the thickness of the epidermal layer observed									7.6 ± 0.5

— patent publication EP4635969A1, “NOVEL GLUCOCORTICOID, METHOD FOR PREPARING SAME, AND USE THEREOF” (Tianjin Pharmaceutical Biotechnology Co., Ltd., priority 2022, dated 2024)
